Ends that are not written are not given here.

Here are results for nine substances from publication PMC5372685, “Passage through the Ocular Barriers and Beneficial Effects in Retinal Ischemia of Topical Application of PACAP1-38 in Rodents” (International Journal of Molecular Sciences, 2017).

Series [1] has as its system monosodium glutamate-induced excitotoxic lesions of the retina. The following applies: intravitreal injection; cited from earlier work. From the text:
(§1) VIP, the peptide with the closest structural similarity ...

In a further series the test system is ischemic retinal lesion. The settings on record: cited from earlier work.
From the text: as §1

For series [2] the following is noted: mouse, in vivo.
On the set-up of series [3]: species or system mice. The following applies: mouse, in vivo. On the procedure:
Mice were anesthetized with urethane and administered PACAP1-38 as an eye drop (1 × 10^6 cpm/eye in benzalkonium-chloride). Serum, whole brain, and eyes were collected 10 or 60 min after the eye drops were administered. The whole brain and eyes were washed in ice-cold PBS. Blood was allowed to clot, centrifuged at 5400× g for 10 min, and 50 μL of the serum obtained was added to 200 μL of 1% BSA in Lactated Ringers' (LR) solution. This mixture was added to 250 μL of 30% trichloroacetic acid, vortexed, and centrifuged for 10 min at 5400× g. Brains and eyes were homogenized separately in 0.5 mL of 1% BSA-LR with a bead beater for 30 s at 4800 rpm × 2 on ice. Samples were transferred to a microfuge tube and centrifuged at 10,000× g for 20 min and a portion of the resulting supernatant added to an equal volume of 30% trichloroacetic acid, vortexed, and centrifuged at 5400× g for 10 min. Resulting supernatant (S) and precipitate (P) from the serum, whole brain, and eyes were counted separately and the percent of radioactivity which could be precipitated with acid (% […]) was calculated using: % […] = 100(P)/(S + P). To correct for any degradation that might have occurred during the processing for acid precipitation, we added 125I-PACAP1-38 to non-radioactive arterial whole blood, whole brain, and eyes, and processed as above. Biological samples were corrected for degradation during processing by dividing their values by the processing control values.

The subject of series [4] is ocular barriers and retinal lesion. The settings on record: eye drops dissolved in benzalkonium-chloride; cited from earlier work. From the text: The present results are in accordance with our recent observations with PACAP1-27 eye drops.
The test system of another series is LH surge. The following applies: intracerebroventricular administration; cited from earlier work. The text has this:
(§2) Our present study, together with the previous study on PACAP1-27, highlights the potential therapeutic use of PACAP in the form of eye drops to treat retinal diseases. The novelty of our present results is that PACAP1-38, the most commonly occurring form of the peptide, exerts a retinoprotective effect similarly to PACAP1-27. Although most actions of PACAP1-27 and PACAP1-38 are similar or the same, several differences are also known. In most studies, PACAP1-27 binds to the receptors with less affinity, leading to less well-pronounced effects at the same concentration as PACAP1-38 [6, 36]. T ...

Another series has as its system dipeptidyl-peptidase. The following applies: cited from earlier work.
From the text: as §2

A further series relates to retinoblastoma cells. The settings on record: high concentrations; cited from earlier work.
From the text: as §2

Series [5] concerns retinal layers in BCCAO-induced retinal hypoperfusion. Kind of series: Retina morphology and morphometry after permanent bilateral common carotid artery occlusion (BCCAO). The class given is in vivo, Wistar rats. On the procedure:
(§3) Wistar rats (n = 20:n = 12 for histological analysis, n = 8 for immunohistochemical analysis) weighing 250–300 g were subjected to permanent ligation of both common carotid arteries. The animals were bred and kept in the Animal Facility of the University of Pecs, Medical School. They were fed and watered ad libitum, under light/dark cycles of 12/12 h. All procedures were in accordance with institutional guidelines (ethical permission No: BA02/2000-31/2011, University of Pecs). Under isoflurane anesthesia, both common carotid arteries were exposed through a midline cervical incision and ligated with a 3-0 filament. Directly after the operation within 1 min, the right eye was treated with PACAP1-38 eye drops (1 µg/drop) (PACAP was synthesized at the Department of Medical Chemistry, University of Szeged, Szeged, Hungary). […] The left eye served as a control, treated only with the vehicle. A group of animals served as the sham-operated group that underwent anesthesia and all steps of the surgical procedure except ligation of the carotid arteries. Rats were treated twice a day with one drop, for 5 consecutive days.
Rats (n = 3 sham, n = 3 sham + PACAP1-38, n = 9 BCCAO, n = 9 BCCAO + PACAP1-38 retinas) were sacrificed with an overdose of anesthetic 2 weeks after BCCAO and eyes were processed for histological analysis. Histological analysis was performed as described previously. Briefly, removed retinas were dissected in phosphate buffered saline (PBS), fixed in 4% paraformaldehyde dissolved in 0.1 M phosphate buffer (PB), embedded in Durcupan ACM resin, and two-µm-thick sections were stained with toluidine blue (Sigma, Budapest, Hungary). Four tissue blocks obtained from at least three rats were prepared and central retinal areas within 1 mm from the optic nerve were used (n = 5 measurements from one tissue block). The following parameters were measured on digital photographs taken with a Nikon Eclipse camera using the Spot program: cross-section from the outer limiting membrane (OLM) to the inner limiting membrane (ILM), and width of all retinal layers (outer nuclear layer-ONL, outer plexiform layer-OPL, inner nuclear layer-INL, inner plexiform layer-IPL). We also counted the number of cells in the ganglion cell layer (GCL). Results are presented as mean ± SEM. Statistical comparisons were made using the two-way ANOVA followed by Fischer’s post hoc analysis.

Series [6] has as its system Müller glial cells (GFAP). Kind of series: GFAP immunohistochemistry of Müller glial cell activation after BCCAO. The settings on record: BCCAO rats, eye drops 1 µg/drop twice a day for 5 days, 2 weeks after ischemia, n = 4; p < 0.05. The class given is in vivo, Wistar rats. How it is done:
as §3, with “Rats were treated twice a day with one drop, for 5 consecutive days.” left out
For immunohistochemical analysis, 2 weeks after the induction of ischemia, animals (n = 4 sham, n = 4 sham + PACAP1-38 and n = 4 BCCAO; n = 4 BCCAO + PACAP1-38 retinas) were sacrificed with 120 mg/kg pentobarbital (Nembutal, Sanofi-Phylaxia, Budapest, Hungary). […] Digital photographs were taken with a Nikon Eclipse Ci fluorescence microscope. […]

As to “PACAP6-27: PACAP receptor antagonist (FTDSYSRYRKQMAVKKYLAAVL; ends and bridges not checked; UniProt P18509 137-158, looked up, fragment)”, the “retinoprotection in monosodium glutamate-induced excitotoxic lesions” value (“retinoprotection” for short) in series [1] is “further increased the excitotoxic damage”.
For the substance glucagon, the “protective effects in ischemic retinal lesion” value with ischemic retinal lesion is “do not exert protective effects”.
“pituitary adenylate cyclase activating polypeptide [PACAP]”: the “serum and brain levels in comparison to ocular levels” value in series [2] is on record as “negligible in comparison to ocular levels”.
Consider “VIP: the peptide with the closest structural similarity to PACAP”, for which the “concentration needed for the same degree of protection as PACAP in ischemic retinopathy” value in the series with ischemic retinal lesion is “ten times higher”.
“125I-PACAP1-38: PACAP1-38 labeled with 125I using the lactoperoxidase method”: in series [3], the “Percentage of acid precipitation, Eye, 10 min” value is recorded as 52.73 ± 2.35%; the “Percentage of acid precipitation, Eye, 60 min” value worked out at 48.24 ± 3.39%; the “Percentage of acid precipitation, Serum, 10 min” value stood at 25.57 ± 25.57%; the “Percentage of acid precipitation, Serum, 60 min” value is 0 ± 0%. Also, in [3], the “Percentage of acid precipitation, Whole Brain, 10 min” value is given as 104.71 ± 17.72%; the “Percentage of acid precipitation, Whole Brain, 60 min” value is 75.09 ± 41.13%; the “degradation in the serum after ocular administration” value was “almost completely degraded by 5 min”.
For secretin, the “protective effects in ischemic retinal lesion” value with ischemic retinal lesion is listed as “do not exert protective effects”.
On to “PACAP6-38: PACAP receptor antagonist (FTDSYSRYRKQMAVKKYLAAVLGKRYKQRVKNK; ends and bridges not checked; UniProt P18509 137-169, looked up, fragment)”, for which the “retinoprotection” value in [1] is listed as “further increased the excitotoxic damage”.
For the substance “PACAP1-27: the shorter biologically active form of PACAP [reference compound]”, the “passage through ocular barriers and effect on retinal lesion” value in [4] is “passes through the mouse ocular barriers from the corneal surface to the retina, and ameliorates the retinal lesion”. Also, in [1], the “retinoprotection” value is “same degree of retinoprotection”. Besides, in the series with LH surge, the “effect on LH surge” value is given as “opposite reaction”. Besides, the “metabolic stability in the serum against dipeptidyl-peptidase” value with dipeptidyl-peptidase was “more stable due to the resistance against dipeptidyl-peptidase reaction”. In addition, in the series on retinoblastoma cells, the “viability of retinoblastoma cells” value is listed as “negligible effects”.
Regarding “pituitary adenylate cyclase activating polypeptide [PACAP1-38]”, in series [2], the “clearance into the blood stream (serum)” value is “increased clearance into the blood stream after 120 min”; the “detection of radioactivity after ocular application” value was “present in the eye, the brain, and the serum five minutes after application”; the “level in the whole brain, time course” value was “detected after 5 min in the whole brain (Figure 4D) and levels remained stable throughout the observation time”; the “transport across the cornea, time course” value is reported as “increasing transport across the cornea over the time course of the study”. Moreover, the “uptake in the retina, time course” value in [2] was “increased to 30 min and plateaued”. Also, in series [5] (BCCAO rats, eye drops 1 µg/drop in 0.005% benzalkonium-chloride, twice a day for 5 days, 2 weeks after ligation, BCCAO vehicle eye 49.7%, p < 0.001, n = 9 retinas), the “OLM–ILM (outer limiting membrane–inner limiting membrane) distance, reduction compared to sham controls” value was 40.6%. Besides, the “outer nuclear layer (ONL) thickness, reduction” value in series [5] (as E1, BCCAO vehicle eye 36.5%, no statistically significant attenuation) is given as 37.7%. Besides, the “inner nuclear layer (INL) thickness, reduction” value in series [5] (as E1, BCCAO vehicle eye 38.5%, p < 0.001) was 30.5%. Moreover, in series [5] (as E1, BCCAO vehicle eye 52.4%, p < 0.05), the “number of cells in the ganglion cell layer (GCL), decrease” value was found to be 25.9%. Also, the “outer plexiform layer (OPL) thickness, reduction” value in [5] (as E1, BCCAO vehicle eye 53.0%, no statistically significant attenuation) was determined as 48.2%. The “inner plexiform layer (IPL) thickness, reduction” value in series [5] (as E1, BCCAO vehicle eye 64.8%, p < 0.05) is 38.2%. Also, in series [5] (sham-operated rats, eye drops 1 µg/drop in benzalkonium, n = 3), the “effect on retinal layers in sham animals” value was “did not result in changes in any of the retinal layers”. Further, in [3], the “Percentage of acid precipitation, Whole Brain, 10 min” value came to 104.71 ± 17.72%; the “Percentage of acid precipitation, Whole Brain, 60 min” value is 75.09 ± 41.13%; the “intact peptide in the eye” value was “about 50%”. Moreover, the “GFAP upregulation in Müller glial cells” value in [6] is “attenuated the GFAP upregulation”. In [1], the “retinoprotection” value was “same degree of retinoprotection”. The “effect on LH surge” value in the series with LH surge was “inhibition of the LH surge”. Further, in the series with dipeptidyl-peptidase, the “metabolic stability in the serum against dipeptidyl-peptidase” value is on record as “rapidly degraded in the serum by dipeptidyl-peptidase”. For the same substance, in the series with retinoblastoma cells, the “viability of retinoblastoma cells” value was “reduced viability”.
